Source: patent US20080031866A1, “METHOD FOR MODULATING THE PHARMACOKINETICS AND METABOLISM OF A THERAPEUTIC AGENT” (priority 2006, published 2008)

Tests used:
[1] = Intracolonic dosing with and without β-glucuronidase, catheterized rat; format: in vivo; details: 10 mg/kg; for AUC / Cmax / concentration at 0 h / concentration at 0.25 h / concentration at 0.5 h / concentration at 1 h / concentration at 2 h / concentration at 3 h / concentration at 4 h / concentration at 5 h / concentration at 6 h: male, Sprague Dawley, rat, plasma; for Cmax: read-out: Cmax average ± standard deviation; for concentration at 0 h / concentration at 0.25 h / concentration at 0.5 h / concentration at 1 h / concentration at 2 h / concentration at 3 h / concentration at 4 h / concentration at 5 h / concentration at 6 h: other: intracolonic
Description: A catheterized rat model was used in which the agent alone or agent and β-glucuronidase enzyme was administered intraduodenally or intracolonically. The intraduodenal and intracolonic dosing was intended to prevent the potential for loss of enzymatic activity when orally dosing the β-glucuronidase (e.g. by degradation in the stomach). […]
For the oral gavage dosing, Compound 1 was prepared in neat PEG-400. For the intraduodenal and intracolonic dosing solutions, Compound 1 was added to neat Tween 80, the mixture was sonicated for thirty minutes at 45° C. until Compound 1 was completely dissolved and then deionized (DI) water was added to form a solution consisting of 20% Tween 80 and 80% DI water by weight.
For the oral enzyme solutions, β-glucuronidase was added to the final formulation at a concentration of 57,600 units/ml.
For the intraduodenal and intracolonic dosing, male Sprague Dawley rats weighing 300-400 g were purchased from Charles River Labs. All rat experiments were conducted under approved animal protocols. The rats were catheterized at Charles River Labs and had one or more of the following chronic catheters for dosing and sampling: jugular/carotid, duodenal, and colonic. Rats were limited to only one GI catheter and one vascular catheter. For IV dosing, rats were purchased with jugular and carotid catheters for dosing in the jugular catheter and blood sampling through the carotid catheter. For intraduodenal/intracolonic dosing, rats had one of the GI catheters for dosing and a carotid catheter for blood sampling.
The surgeries were done two weeks prior to start of testing. Rats were fed 4 hours post dose administration. All rats were dosed without anesthesia and sacrificed at the end of the study.
(§1) A quantitative method for determining the amount of (6,7-dimethoxy-2,4-dihydro-indeno[1,2-c]pyrazol-3-yl)-(3-fluoro-phenyl)-amine Compound 1 and its major metabolites, glucuronide A (Cpd 1-GluA) and glucuronide B (Cpd 1-GluB) (see Scheme A) in rat plasma was developed using phenacetin as an internal standard. [drawing 1]
(§2) The two glucuronide conjugates were prepared and purified to permit accurate quantification of the levels of intact parent Compound 1 versus Cpd 1-GluA and Cpd 1-GluB. Each standard curve for Compound 1, Cpd 1-GluA, and Cpd 1-GluB generated from rat plasma included ten concentration levels. […] The quantitative procedure for each sample included: sample preparation, HPLC separation and mass spectrometry detection.
(§3) The rat plasma was prepared using protein precipitation techniques. Reference standards and quality control samples in rat plasma for Compound 1 were transferred to a 96 deep-well plate. The precipitation solution contained 100 ng/ml of internal standard in acetonitrile. 300 μl of precipitation solution were added to 100 μl of each standard, quality control and plasma sample. Samples were vortexed for 10 mins, then centrifuged at 4500 RPM for 10 mins. 10 μl of each sample were injected for LC/MS/MS analysis.
(§4) The HPLC column chosen for the bioanalysis was purchased from Thermo Electron (Hypersil BetaBasic C18, 5 cm×2.1 mm). The eluting solvents were composed of Solvent A: 0.1% formic acid in H2O and Solvent B: 0.1% formic acid in acetonitrile. A step gradient was used and flow rate was 300 μl/min. The total run time was 3.2 mins. Solvent B was increased from 35% at 0 min to 75% at 2.1 mins and decreased back to 35% at 2.2 mins. The retention times for Compound 1, phenacetin, Cpd 1-GluA and Cpd 1-GluB were 1.1 min, 0.9 min, 1.3 min, and 1.6 min, respectively.
API3000 with a Turbo Ionspray interface from Applied Biosystems was used for the detection of Compound 1, the internal standard and major metabolites. Electrospray ionization was performed in the positive ion mode heated nebulizer with a temperature of 300° C. LC/MS/MS chromatograms were acquired in MRM (multiple reaction mode). […]

[2] = IV pharmacokinetics of Compound 1 and its glucuronides in rats; format: in vivo, rat; details: for AUC: read-out: AUC average ± standard deviation; for Cmax: read-out: Cmax average ± standard deviation
Description: Two separate IV studies were carried out using two separate lots of animals. IV-A was run on the same lot of animals as the oral gavage study and IV-B was run on the same lot of animals as the intraduodenal and intra-colonic studies.
For the IV dosing solutions (IV), Compound 1 was prepared by addition to DI water containing 20% hydroxypropyl β-cyclodextran by weight.
For the IV and oral gavage dosing (sampling at jugular and portal vein), young adult male Sprague Dawley rats weighing 250-400 g were purchased from Hilltop Lab Animals Inc. All rat experiments were conducted under approved animal protocols. The rats for the oral gavage dosing were catheterized at Hilltop Lab Animals Inc, had two chronic catheters for sampling: jugular and portal, were housed in cages of Culex™ Automated Blood Sampler (ABS) and blood samples were collected simultaneously via both cannula and were controlled by the Culex™ ABS control software.
as §1, §2, §3, §4
API3000 with a Turbo Ionspray interface from Applied Biosystems was used for the detection of Compound 1, the internal standard and major metabolites. Electrospray ionization was performed in the positive ion mode heated nebulizer with a temperature of 300° C. LC/MS/MS chromatograms were acquired in MRM (multiple reaction mode). The MRM transitions for Compound 1, the internal standard, Cpd 1-GluA and Cpd 1-GluB were from 326.3 to 190.6, 181.1 to 110.3, 502.2 to 368.3 and 502.2 to 326.4, respectively.
Pharmacokinetic analysis of the plasma concentration data was performed to determine the maximum plasma concentration (Cmax) for the oral dose, and the concentration at zero time (C0; Compound 1 only) by the extrapolation of drug concentrations back to the time of i.v. dosing, the time to maximum plasma concentration (Tmax) following the oral dose, area under the plasma concentration vs. time curve (AUC), terminal half-life (t1/2), plasma clearance (CL/F; Compound 1 only), and volume of distribution at steady state (Vdss; Compound 1 only) for the i.v. dose, using the WinNonlin (Version 3.1, Pharsight, Palo Alto, Calif.) validated computer program.

[3] = rats N=6, Compound 1 10 mg/kg intracolonic with β-glucuronidase, read-out: AUC average ± standard deviation 0 to 6 hours
[4] = rats N=6, Compound 1 10 mg/kg intracolonic with β-glucuronidase
[5] = rats N=6, Compound 1 10 mg/kg intracolonic without enzyme, read-out: AUC average ± standard deviation 0 to 6 hours
[6] = rats N=6, Compound 1 10 mg/kg intracolonic without enzyme
[7] = Sprague Dawley, rat, plasma, male rats N=4, Compound 1 2 mg/kg IV
[8] = Sprague Dawley, rat, plasma, male rats N=4, Compound 1 2 mg/kg IV, retro orbital sinus

COc1cc2c(cc1OC)-c1nn(C3OC(C(=O)O)C(O)C(O)C3O)c(Nc3cccc(F)c3)c1C2 (stereo in doubt) [Cpd 1-GluB]
AUC [1, 3]: 176 ± 123 ng·h/mL
Cmax [1, 4]: 79.4 ± 47.3 ng/mL
AUC [1, 5]: 499 ± 137 ng·h/mL
Cmax [1, 6]: 140 ± 56.9 ng/mL
concentration at 0 h [1, 4]: 0 ng/mL
concentration at 0.25 h [1, 4]: 508 ± 342 ng/mL
concentration at 0.5 h [1, 4]: 503 ± 363 ng/mL
concentration at 1 h [1, 4]: 676 ± 586 ng/mL
concentration at 2 h [1, 4]: 275 ± 260 ng/mL
concentration at 3 h [1, 4]: 271 ± 181 ng/mL
concentration at 4 h [1, 4]: 194 ± 165 ng/mL
concentration at 5 h [1, 4]: 146 ± 84.4 ng/mL
concentration at 6 h [1, 4]: 119 ± 108 ng/mL
concentration at 0 h [1, 6]: 0 ng/mL
concentration at 0.25 h [1, 6]: 70.2 ± 29.3 ng/mL
concentration at 0.5 h [1, 6]: 72.4 ± 28.2 ng/mL
concentration at 1 h [1, 6]: 51.2 ± 24.9 ng/mL
concentration at 2 h [1, 6]: 13.5 ± 5.5 ng/mL
concentration at 3 h [1, 6]: 7.1 ± 5 ng/mL
concentration at 4 h [1, 6]: 9.6 ± 6.7 ng/mL
concentration at 5 h [1, 6]: 9.2 ± 4.1 ng/mL
concentration at 6 h [1, 6]: 10.4 ± 4 ng/mL
AUC average ± standard deviation 0 to 6 hours [1, 4]: 175.9 ± 123.1 ng·h/mL
AUC average ± standard deviation 0 to 6 hours [1, 6]: 498.7 ± 137.2 ng·h/mL
AUC [2, 7]: 103 ± 47 ng·h/mL
Cmax [2, 7]: 28 ± 3 ng/mL
concentration at 0 h ([2]; Sprague Dawley, rat, plasma, male rats N=4, Compound 1 2 mg/kg IV, retro orbital sinus, 0 hrs): 0 ng/mL
concentration at 0.08 h [2, 8]: 21.2 ng/mL
concentration at 0.33 h [2, 8]: 28.4 ng/mL
concentration at 1 h [2, 8]: 17.8 ng/mL
concentration at 2 h [2, 8]: 5.5 ng/mL
concentration at 4 h [2, 8]: 0 ng/mL
concentration at 8 h [2, 8]: 0 ng/mL
concentration at 24 h [2, 8]: 0 ng/mL
Tmax ([2]; Sprague Dawley, rat, plasma, male rats, Compound 1 2 mg/kg IV): 18 min

COc1cc2c(cc1OC)-c1n[nH]c(Nc3cccc(F)c3)c1C2 [Compound 1, (6,7-dimethoxy-2,4-dihydro-indeno[1,2-c]pyrazol-3-yl)-(3-fluoro-phenyl)-amine]
AUC [1, 3]: 9.5 ± 2.5 ng·h/mL
Cmax [1, 4]: 4 ± 0.6 ng/mL
AUC [1, 5]: 15.5 ± 24.9 ng·h/mL
Cmax [1, 6]: 9.5 ± 17.9 ng/mL
AUC ([1]; with and without β-glucuronidase, read-out: AUC of parent after intracolonic administration): < 16 ng·h/mL
concentration at 0 h [1, 4]: 0 ng/mL
concentration at 0.25 h [1, 4]: 129 ± 41.4 ng/mL
concentration at 0.5 h [1, 4]: 107 ± 26.6 ng/mL
concentration at 1 h [1, 4]: 75.6 ± 35 ng/mL
concentration at 2 h [1, 4]: 21.2 ± 12.5 ng/mL
concentration at 3 h [1, 4]: 12.9 ± 4.3 ng/mL
concentration at 4 h [1, 4]: 9.5 ± 3.1 ng/mL
concentration at 5 h [1, 4]: 3.7 ± 6.3 ng/mL
concentration at 6 h [1, 4]: 1.7 ± 2.7 ng/mL
concentration at 0 h [1, 6]: 0 ng/mL
concentration at 0.25 h [1, 6]: 6.4 ± 11.5 ng/mL
concentration at 0.5 h [1, 6]: 8 ± 15.7 ng/mL
concentration at 1 h [1, 6]: 8.7 ± 18.2 ng/mL
concentration at 2 h [1, 6]: 2 ± 3.1 ng/mL
concentration at 3 h [1, 6]: 1.1 ± 2.7 ng/mL
concentration at 4 h [1, 6]: 0 ng/mL
concentration at 5 h [1, 6]: 0 ng/mL
concentration at 6 h [1, 6]: 0 ng/mL
Plasma level of Compound 1 relative to level of the metabolites ([2]; IV administration): 2%
AUC [2, 7]: 345 ± 42 ng·h/mL
C0 ([2]; Sprague Dawley, rat, plasma, male rats N=4, Compound 1 2 mg/kg IV, read-out: C0 (concentration at zero time, by extrapolation)): 783 ng/mL
Cmax [2, 7]: 783 ± 233 ng/mL
concentration at 0.08 h [2, 8]: 610 ng/mL
concentration at 0.33 h [2, 8]: 286 ng/mL
concentration at 1 h [2, 8]: 71.3 ng/mL
concentration at 2 h [2, 8]: 16.3 ng/mL
concentration at 4 h [2, 8]: 1.2 ng/mL
concentration at 8 h [2, 8]: 0 ng/mL
concentration at 24 h [2, 8]: 0 ng/mL
